# Laboratory results from US6576640B1, “Benzisoxazoles and phenones as α2-antagonists” (Janssen Pharmaceutica N.V., priority 1998, dated 2003).
# Tests used:
# [1] = target: T1, cloned human α2A receptors (Homo sapiens, UniProt P08913); experiment: In vitro radioligand binding affinity for α2A receptor (3H-rauwolscine competition); details: read-out: dissociation: IC50 value for the α2a receptor
# T1 construct: expressed in transfected cells; host or cells: Chinese Hamster Ovary (CHO) cells
# T1 sequence (P08913 1-465): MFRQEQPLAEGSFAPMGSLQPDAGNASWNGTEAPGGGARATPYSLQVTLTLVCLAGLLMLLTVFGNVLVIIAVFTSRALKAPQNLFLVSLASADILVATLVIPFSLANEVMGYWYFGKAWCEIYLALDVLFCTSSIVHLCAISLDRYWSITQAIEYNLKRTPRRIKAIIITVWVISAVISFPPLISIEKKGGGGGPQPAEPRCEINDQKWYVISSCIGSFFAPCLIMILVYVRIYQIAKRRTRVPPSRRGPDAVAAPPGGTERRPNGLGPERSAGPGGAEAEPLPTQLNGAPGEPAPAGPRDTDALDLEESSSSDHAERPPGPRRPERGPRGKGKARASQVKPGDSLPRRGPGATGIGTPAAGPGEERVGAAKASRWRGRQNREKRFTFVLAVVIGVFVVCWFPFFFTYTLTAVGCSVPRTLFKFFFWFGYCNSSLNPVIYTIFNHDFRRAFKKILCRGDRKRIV
# Method: The interaction of the compounds of formula (I) with α2 receptors was assessed in in vitro radioligand binding experiments.
# In general, a low concentration of a radioligand with a high binding affinity for a particular receptor is incubated with a sample of a tissue preparation enriched in a particular receptor or with a preparation of cells expressing cloned human receptors in a buffered medium. During the incubation, the radioligand binds to the receptor. When equilibrium of binding is reached, the receptor bound radioactivity is separated from the non-bound radioactivity, and the receptor bound activity is counted. The interaction of the test compounds with the receptor is assessed in competition binding experiments. Various concentrations of the test compound are added to the incubation mixture containing the receptor preparation and the radioligand. Binding of the radioligand will be inhibited by the test compound in proportion to its binding affinity and its concentration.
# The radioligand used for α2A, α2B and α2C receptor binding is ^3H-rauwolscine and the receptor preparation used is the Chinese Hamster Ovary (CHO) cell expressing cloned human α2A, α2B and α2C receptors.
# [2] = target: dopamine D2 receptor (Homo sapiens, UniProt P14416); experiment: Receptor binding affinity for dopamine D2 (dissociation α2a / D2); details: for Ratio D2/α2a (dissociation between the two receptors): ratio of IC50 D2 to IC50 α2a; for IC50: receptor binding affinity, dopamine D2
# Description: As already mentioned above, dopamine D2 antagonism may lead to an increased risk of EPS. Thus, the larger the dissociation between α2a and D2, the better. The columns headed “dissociation” show the IC50 value in molar (M) for the α2a receptor and the D2 receptor. By “Ratio” is meant the ratio D2/αa and this is an indication for the dissociation between said two receptors.
# dopamine D2 receptor, sequence (P14416 whole entry, species assumed): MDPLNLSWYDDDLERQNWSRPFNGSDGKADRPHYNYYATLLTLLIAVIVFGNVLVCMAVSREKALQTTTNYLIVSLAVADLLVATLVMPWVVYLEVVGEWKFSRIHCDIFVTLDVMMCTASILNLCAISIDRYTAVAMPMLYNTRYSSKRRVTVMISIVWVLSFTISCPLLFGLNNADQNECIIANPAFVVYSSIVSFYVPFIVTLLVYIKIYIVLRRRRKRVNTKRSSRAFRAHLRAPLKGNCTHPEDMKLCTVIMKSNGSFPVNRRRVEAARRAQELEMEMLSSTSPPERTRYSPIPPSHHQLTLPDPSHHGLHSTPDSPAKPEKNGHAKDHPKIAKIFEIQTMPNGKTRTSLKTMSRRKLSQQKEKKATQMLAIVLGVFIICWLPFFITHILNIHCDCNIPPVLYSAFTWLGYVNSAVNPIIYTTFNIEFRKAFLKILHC
SMILES,IC50 [1] [µM],Ratio D2/α2a (dissociation between the two receptors) [2],IC50 [2] [µM],melting point [°C]
"O=C(CCCCCN1CCc2oc3ccccc3c2C1)c1ccc(F)cc1 [Comp. 2, 1-(4-fluorophenyl)-6-(1,2,3,4-tetrahydrobenzofuro[3,2-c]pyridin-2-yl)-1-hexanone (E)-2-butenedioate (1:1)]",0.00026,1950,0.5,
O=C(CCCN1CCc2[nH]c3ccccc3c2C1)c1ccc(F)cc1 [reference compound],0.041,2.5,0.1,
O=C(CCCN1CCc2oc3ccccc3c2C1)c1ccc(F)cc1 [reference compound],0.0021,102,0.21,
O=C(CCCCCN1CCc2[nH]c3ccccc3c2C1)c1ccc(F)cc1 [Comp. 1],0.005,79,0.4,190
